Consider 1 compound from US20140248655A1, “QUANTITATIVE SOFT AGAR COLONY FORMATION ASSAY USING TETRAZOLIUM THAT GENERATES WATER-SOLUBLE FORMAZAN” (KAGOSHIMA UNIVERSITY, priority 2011, published 2014).

The test deals with DU145 cells. The test can be described thus: Method of the invention: soft agar colony formation assay with WST-1, DU145. It is filed as cell-based, human. From the text:
The […] compounds used may be able to function as ideal antitumor agents that have PCA-1 inhibitory effects, fewer (and less severe) side effects (cytotoxicity), and high tumor-shrinking effects.
For orientation: Formazan colour is commonly taken as a measure of viable cells.

In the case of `CC(=O)O[C@H]1C(=O)[C@@]2(C)[C@H]([C@H](OC(=O)c3ccccc3)[C@]3(O)C[C@H](OC(=O)[C@H](O)[C@@H](NC(=O)c4ccccc4)c4ccccc4)C(C)=C1C3(C)C)[C@]1(OC(C)=O)CO[C@@H]1C[C@@H]2O` [Paclitaxel], the “cell viability (%)” value (DU145 10,000 cells/well, culture 1 week, concentrations of FIG. 2) was “lowered by Paclitaxel as an anticancer agent in a concentration-dependent manner”. Under “medium containing 100 μmol of Paclitaxel, culture 7 days, FIG. 1”, the “OD value (OD405) versus number of seeded cells” value is “the OD value was low, and it was not correlated with the number of cells”.
